Measured values as given in patent publication US20260256782A1, “COMBINATION THERAPIES COMPRISING MYC MODULATION” (FLAGSHIP PIONEERING INNOVATIONS V, INC., priority 2022, published 2026).
Like-named read-outs stand apart in the source and are kept apart here. Blank lines part the entries; values can stand above or below the compound they belong to.

What was measured:
[1] = test system: Hep 3B cells; assay: Cell viability (Celltiter-Glo), lenvatinib in combination with bicistronic ZF9-MQ1_ZF3-KRAB DS; Bliss synergy (SynergyFinder 2.0); type: cell-based; conditions: Homo sapiens, Hep3B, 72 h
Description: (§1) […] Cell viability (Celltiter-Glo) levels were assessed 72 hours after treatment. Bliss synergy scores calculated using SyngeryFinder 2.0 were used to determine combinatorial effect.
(§2) Bliss synergy scores calculated using SynergyFinder 2.0 were used to determine combinatorial effect. The degree of combination synergy, or antagonism, is quantified by comparing the observed drug combination response against the expected response, calculated using a reference model that assumes no interaction between drugs. The Bliss independence model assumes a stochastic process in which two drugs elicit their effects independently, and the expected combination effect can be calculated based on the probability of independent events. […] Bliss synergy scores plus lenvatinib for Hep 3B and SK-HEP-1 were 5.37 and 12.77.

[2] = test system: SK-HEP-1 cells; assay: as above; type: cell-based; conditions: Homo sapiens, SK-HEP1, 72 h
Description: as §1, §2

[3] = test system: MYC protein in H1975 parental cells; assay: MYC protein level by JESS system; type: cell-based; conditions: 48 hours, 1 μM osimertinib or 1 μg/ml MR-32380 in SSOP
Excerpt: (§3) MYC protein levels were assess using a JESS system (Protein Simple). A 12-230 kDa pre-filled plate (Protein Simple) was loaded with protein lysate, antibody mix (MYC: Cell signaling technologies, actin: Cell signaling technologies, Goat anti-rabbit of mouse secondary antibodies conjugated with HRP, or fluorescent marker), and luminol master mix. The loaded plate and capillary cartridge (Protein Simple) were then transferred to the JESS system (Protein Simple) for imaging and quantification following manufacturer's protocol.

[4] = test system: MYC protein in osimertinib-resistant cell lines derived from H1975 (OsimR_1.25 and OsimR_1.5); assay: MYC protein level by JESS system; type: cell-based; conditions: osimertinib resistant H1975 cells, 48 hours, 1 μM osimertinib or 1 μg/ml MR-32380 in SSOP
Excerpt: as §3

[5] = test system: PC9 cells; assay: Cell viability (CellTiter Glo), osimertinib with control or MR-32054; type: cell-based; conditions: Homo sapiens, PC-9, 72 h; read-out: IC50, reduction of viability
Excerpt: (§4) The CellTiter Glo (Promega) assay was used according to manufacturer's instructions to assess cell viability. […] Odyssey CLx Imaging System (LICOR) using near-infrared (NIR) fluorescence was used to capture and quantify the protein images.

[6] = test system: subcutaneous H1975 tumors with sensitizing EGFR mutations (L858R, T790M); assay: H1975 subcutaneous tumor model, tumor growth; design: species or system mice; conditions: mouse, in vivo
Description: Tumor growth was measured throughout the experiment (FIG. 15).
The length and width of tumors were measured three times weekly. Tumor volumes were calculated as width^2×length/2. Body weights were measured daily.

[7] = test system: osimertinib-resistant cell lines derived from H1975 (OsimR_1.25 and OsimR_1.5); assay: Cell viability (CellTiter Glo) after osimertinib or MR-32380 in osimertinib-resistant lines; type: cell-based; conditions: OsimR_1.25 and OsimR_1.5, 72 hours, increasing doses
Description: Cell viability was assessed using the CellTiter Glo (Promega) assay used according to manufacturer's instructions.

[8] = test system: Myc protein in PC9 cells; assay: Myc protein by Western blot, osimertinib and/or MR-32054; type: cell-based; conditions: PC9, 48 h, 1 μM osimertinib and/or 0.5 μg/ml MR-32054 in SSOP LNPs, normalized to untreated
[9] = test system: H1975 cells; assay: cells; conditions: Homo sapiens, NCI-H1975, 72 h, read-out: IC50, growth inhibition (cell viability)
Excerpt: as §4

IC50 ([2]; SK-HEP-1, 72 hours, lenvatinib without DS, read-out: IC50 of lenvatinib): 17700 nM
IC50 ([2]; SK-HEP-1, ZF9-MQ1_ZF3-KRAB concentration 0 μg/mL, cell viability 72 hours after treatment, read-out: Lenvatinib IC50): 17700 nM
IC50 ([2]; SK-HEP-1, ZF9-MQ1_ZF3-KRAB concentration 0.1 μg/mL, cell viability 72 hours after treatment, read-out: Lenvatinib IC50): 13300 nM
IC50 ([2]; SK-HEP-1, ZF9-MQ1_ZF3-KRAB concentration 0.6 μg/mL, cell viability 72 hours after treatment, read-out: Lenvatinib IC50): 3860 nM
IC50 ([2]; SK-HEP-1, ZF9-MQ1_ZF3-KRAB concentration 1.0 μg/mL, cell viability 72 hours after treatment, read-out: Lenvatinib IC50): 1910 nM
Structure (SMILES): COc1cc2nccc(Oc3ccc(NC(=O)NC4CC4)c(Cl)c3)c2cc1C(N)=O [lenvatinib]
IC50 ([1]; ZF9-MQ1_ZF3-KRAB concentration 0 μg/mL, cell viability 72 hours after treatment, read-out: Lenvatinib IC50): 533 nM
IC50 ([1]; ZF9-MQ1_ZF3-KRAB concentration 0.06 μg/mL, cell viability 72 hours after treatment, read-out: Lenvatinib IC50): 309 nM
IC50 ([1]; ZF9-MQ1_ZF3-KRAB concentration 0.6 μg/mL, cell viability 72 hours after treatment, read-out: Lenvatinib IC50): 23 nM
IC50 ([1]; ZF9-MQ1_ZF3-KRAB concentration 1.0 μg/mL, cell viability 72 hours after treatment, read-out: Lenvatinib IC50): 48 nM
IC50 ([1]; lenvatinib without DS, read-out: half maximal inhibitory concentration (IC50) of lenvatinib): 533 nM

Structure (SMILES): C=CC(=O)Nc1cc(Nc2nccc(-c3cn(C)c4ccccc34)n2)c(OC)cc1N(C)CCN(C)C [osimertinib]
MYC protein level [3]: decreased MYC protein level
MYC protein level [4]: not affected
IC50 [5]: 420 nM
tumor growth (tumor volume) [6]: inhibit tumor growth
cell viability (sensitivity) [7]: resistant to osimertinib
reduction of Myc protein levels [8]: 80%

IC50 [9]: 140 nM
Structure (SMILES): CC(=O)Nc1cccc(-n2c(=O)n(C3CC3)c(=O)c3c(Nc4ccc(I)cc4F)n(C)c(=O)c(C)c32)c1 [trametinib]
